Measured values reported in patent publication US20230250417A1, “METHODS FOR DETECTING RNA TRANSLATION” (Eclipse Bioinnovations, Inc., priority 2021, published 2023).
“Also recorded” adds a separate entry of the source.

How the values were obtained:
gene FUS = test: Bead barcoded multiplexed RBP/RPS2 binding, genome track view (IGV) with normalized read counts; assay type: cell-based, human; settings: cells treated with 200 nM Risdiplam for 2 hours vs DMSO control; FIG. 7
Description: FIG. 7 depicts an IGV screenshot of the gene FUS with normalized read counts for 7 different RBPs and the translation component protein RPS2. Two conditions are shown; one DMSO control and the other cells treated with 200 nM Risdiplam. […] This example illustrates a protocol for a bead barcoded experiment for detecting RNA modifications from cells with RBPs according to an embodiment of the disclosure. The buffers described below are the same as mentioned above with respect to Example 2 unless explicitly stated otherwise. First, Trypan blue stain (Thermo Fisher Scientific, cat. #15250061) or equivalent live cell counting assay was used to valuate cell viability. Next, cell viability was reviewed to be sure it was >95% to ensure intact RNA. Cells were grown to a proper confluence, in most cases grow cells to 75% confluence. Some cells were treated with 200 nM Risdiplam for 2 hours prior to harvesting. First, resuspend anti-rabbit Dynabeads by vortexing or pipetting up and down several times. Second, transfer 500 μL of beads (enough for 20 samples) into a 1.5 mL Eppendorf tube and place tube on DynaMag-2. Third, Remove the supernatant and wash beads thrice with 500 μL PBS, resuspending beads with each wash. Fourth, remove beads from magnet, resuspend beads in 500 μL PBS, add 1.65 μL DBCO-NHS (10 mM in DMSO), and rotate tube at room temperature for 1 hour. […]

[1] = test system: TOP motif containing gene, GAPDH; test: Ribo-ABC (oligo conjugated antibody) ribosome-bound RNA read counts, genome track view; assay type: cell-based; settings: ribosomal proteins RPS2, RPS3, RPS14, FIG. 2 top panel
Description: (§1) Three different ribosomal proteins were used RPS2, RPS3, RPS14.
(§2) This example provides a protocol for a Ribo-ABC experiment according to an embodiment of the disclosure.
(§3) First, the tissue culture plate was placed on leveled ice or on a cooling block pre-chilled to 4° C. Second, the above (plate plus ice or cooling block) was placed into the UV cross-linker. Third, the tissue culture plate lid was removed for cross-linking. Fourth, cross-link at 254-nm UV with an energy setting of 400 mJoules/cm^2. Fifth, while keeping the cells on ice, a cell scraper (Corning, cat. #CLS3010-10EA) was used to scrape the plate. Sixth, the cells were transferred to a 15 mL conical tube. Seventh, the plate was washed once with 5 mL of chilled PBS and added to the same 15 mL tube. Eight, gently resuspended until the sample was homogeneous. Ninth, the 15 mL conical tube was centrifuged at 200×g for 3 minutes at 4° C. Tenth, the sample was aspirated and discarded supernatant. Eleventh, the desired amount of cells for flash freezing was resuspended in chilled PBS (typically 10×10^6 cells per mL). Twelfth, the sample was transferred into 1.5 mL LoBind tubes Tubes (typically 1 mL of 10×10^6 cells per mL). Thirteenth, the sample was spun down at 200×g for 3 minutes at 4° C. Fourteenth, the supernatant was aspirated, and the cell pellets were frozen quickly by submerging the 1.5 mL LoBind tubes in liquid nitrogen. […]

[2] = test system: non-TOP motif containing gene, PARP1; test: as above; assay type: cell-based; settings: ribosomal proteins RPS2, RPS3, RPS14, FIG. 2 bottom panel
Description: as §1, §2, §3

Molecule | change in binding on gene FUS (7 RBPs and RPS2) versus DMSO control (gene FUS) | change in read counts of GAPDH upon Torin treatment [1] | change in read counts of PARP1 upon Torin treatment [2]
Cc1cn2nc(-c3cc(=O)n4cc(N5CCNC6(CC6)C5)ccc4n3)cc(C)c2n1 [Risdiplam] | a change in binding across the two conditions; also recorded: a difference observed between the two conditions |  | 
Torin |  | reduced read counts | no change in read counts
